Measured values taken from patent publication US20210255193A1, “LYSINE REACTIVE PROBES AND USES THEREOF” (The Scripps Research Institute, priority 2017, published 2021).
Blank lines part the entries; values can stand above or below the compound they belong to.

Legend:
[1] = target: T1, MTHFD1 C-1-tetrahydrofolate synthase, cytoplasmic (Homo sapiens, UniProt P11586); assay: competitive isoTOP-ABPP; format: binding; settings: for isoTOP-ABPP ratio (R) at liganded lysine P11586_K760 / isoTOP-ABPP reactivity ratio at lysine P11586_K760: 50 uM, in vitro; for isoTOP-ABPP ratio (R) at liganded lysine P11586_K760: sol, 231; for isoTOP-ABPP reactivity ratio at lysine P11586_K760: 231 sol
T1 construct: isoTOP-ABPP experiments performed in cell lysates (in vitro); endogenous in cells; host or cells: MDA-MB-231 soluble lysate
T1 sequence (P11586 1-935): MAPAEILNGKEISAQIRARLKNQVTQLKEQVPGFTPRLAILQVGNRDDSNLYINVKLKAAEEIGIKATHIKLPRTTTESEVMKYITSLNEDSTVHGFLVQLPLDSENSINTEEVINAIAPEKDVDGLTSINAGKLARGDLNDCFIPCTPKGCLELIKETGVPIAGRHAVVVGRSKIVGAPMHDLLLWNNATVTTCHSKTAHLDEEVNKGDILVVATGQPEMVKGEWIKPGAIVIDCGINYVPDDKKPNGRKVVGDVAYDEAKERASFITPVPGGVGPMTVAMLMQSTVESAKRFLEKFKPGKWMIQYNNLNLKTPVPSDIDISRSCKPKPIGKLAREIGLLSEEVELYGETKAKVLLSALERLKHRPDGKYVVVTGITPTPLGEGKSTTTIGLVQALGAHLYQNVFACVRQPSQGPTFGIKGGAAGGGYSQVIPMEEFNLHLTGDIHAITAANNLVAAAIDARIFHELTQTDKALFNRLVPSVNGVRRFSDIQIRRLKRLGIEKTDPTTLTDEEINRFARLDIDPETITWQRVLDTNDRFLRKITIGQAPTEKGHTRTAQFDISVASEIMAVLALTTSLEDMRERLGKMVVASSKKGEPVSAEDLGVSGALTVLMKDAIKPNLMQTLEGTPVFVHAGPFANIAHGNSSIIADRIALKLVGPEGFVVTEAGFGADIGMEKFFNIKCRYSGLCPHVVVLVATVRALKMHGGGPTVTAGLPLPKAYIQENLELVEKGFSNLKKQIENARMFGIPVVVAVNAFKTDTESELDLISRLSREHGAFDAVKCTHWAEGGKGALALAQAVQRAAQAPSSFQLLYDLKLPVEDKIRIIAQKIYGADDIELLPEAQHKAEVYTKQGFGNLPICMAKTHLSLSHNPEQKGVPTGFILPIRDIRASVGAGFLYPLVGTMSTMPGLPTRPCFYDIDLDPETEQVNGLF
How it was run: (§1)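 Probe: STP-alkyne, 0.1 mM, 1 h RT, after fragment pretreatment of lysate (esters 50 μM; guanidinylators 100 μM). Tags: light = compound, heavy = DMSO, via CuAAC. Replicates averaged if SD <60% of mean; otherwise lowest ratio used when any R <4.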

[2] = target: T2, HAUS4 HAUS augmin-like complex subunit 4 (Homo sapiens, UniProt Q9H6D7); assay: competitive isoTOP-ABPP; format: binding; settings: for R value (DMSO/fragment) for probe 1 labeling: Q9H6D7_K271; for R value (DMSO/fragment) for probe 1 labeling / isoTOP-ABPP ratio (R) at liganded lysine Q9H6D7_K271 / isoTOP-ABPP reactivity ratio at lysine Q9H6D7_K271: 50 uM, in vitro; for R value (DMSO/fragment) for probe 1 labeling / isoTOP-ABPP reactivity ratio at lysine Q9H6D7_K271: 231 sol; for isoTOP-ABPP ratio (R) at liganded lysine Q9H6D7_K271: sol, 231
T2 construct: endogenous in cells; host or cells: MDA-MB-231 (soluble fraction of lysate)
T2 sequence (Q9H6D7 1-363): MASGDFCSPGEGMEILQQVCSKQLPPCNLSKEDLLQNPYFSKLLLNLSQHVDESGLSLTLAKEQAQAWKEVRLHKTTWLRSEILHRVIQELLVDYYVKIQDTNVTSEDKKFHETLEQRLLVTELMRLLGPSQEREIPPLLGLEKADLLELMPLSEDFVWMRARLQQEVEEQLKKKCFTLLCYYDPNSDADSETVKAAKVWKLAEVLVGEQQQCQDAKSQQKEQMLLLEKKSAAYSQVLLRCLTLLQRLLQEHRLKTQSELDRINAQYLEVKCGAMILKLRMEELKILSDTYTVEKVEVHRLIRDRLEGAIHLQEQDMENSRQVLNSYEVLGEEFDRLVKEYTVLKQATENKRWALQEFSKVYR
How it was run: as §1

Structure (SMILES): CC(C)(C)OC(=O)NCCCC(=O)Oc1ccc([N+](=O)[O-])cc1[N+](=O)[O-] [fragment 41, 2,4-Dinitrophenyl 4-((tert-butoxycarbonyl)amino)butanoate]
isoTOP-ABPP ratio (R) at liganded lysine P11586_K760 [1]: 4.2

R value (DMSO/fragment) for probe 1 labeling [2]: 0.9
Structure (SMILES): Cn1cc(CC(=O)Oc2c(F)c(F)c(F)c(F)c2F)c2ccccc21 [fragment 22, Pentafluorophenyl 2-(1-methyl-1H-indol-3-yl)acetate]

Structure (SMILES): O=C(Oc1ccc([N+](=O)[O-])cc1[N+](=O)[O-])c1ccc(-c2ccccc2)cc1 [fragment 37, 2,4-Dinitrophenyl [1,1′-biphenyl]-4-carboxylate]
isoTOP-ABPP ratio (R) at liganded lysine Q9H6D7_K271 [2]: 0.7

R value (DMSO/fragment) for probe 1 labeling [2]: 0.7
Structure (SMILES): O=C(Oc1c(F)c(F)c(F)c(F)c1F)C(c1ccccc1)c1ccccc1 [fragment 20, Pentafluorophenyl 2,2-diphenylacetate]

Structure (SMILES): O=C(CCc1ccc2c(c1)OCO2)Oc1ccc([N+](=O)[O-])cc1[N+](=O)[O-] [fragment 45, 2,4-Dinitrophenyl 3-(benzo[d][1,3]dioxol-5-yl)propanoate]
isoTOP-ABPP ratio, lysine Q9H6D7_K271 ([2]; 50 uM_231_sol_in vitro): 1.1

Structure (SMILES): O=C(Oc1ccc([N+](=O)[O-])cc1[N+](=O)[O-])c1ccccc1Nc1cccc(C(F)(F)F)c1 [fragment 40, 2,4-Dinitrophenyl 2-((3-(trifluoromethyl)phenyl)amino)benzoate]
isoTOP-ABPP ratio (R) at liganded lysine Q9H6D7_K271 [2]: 0.7

Structure (SMILES): O=C(Oc1ccc([N+](=O)[O-])cc1[N+](=O)[O-])C(c1ccccc1)c1ccccc1 [fragment 30, 2,4-Dinitrophenyl 2,2-diphenylacetate]
isoTOP-ABPP reactivity ratio at lysine Q9H6D7_K271 [2]: 1.0
isoTOP-ABPP reactivity ratio at lysine P11586_K760 [1]: 0.9

Structure (SMILES): O=C(Oc1ccc([N+](=O)[O-])cc1[N+](=O)[O-])c1cc(C(F)(F)F)cc(C(F)(F)F)c1 [fragment 31, 2,4-Dinitrophenyl 3,5-bis(trifluoromethyl)benzoate]
isoTOP-ABPP reactivity ratio at lysine P11586_K760 [1]: 0.8

Structure (SMILES): Cn1cc(CC(=O)Oc2ccc([N+](=O)[O-])cc2[N+](=O)[O-])c2ccccc21 [fragment 32, 2,4-Dinitrophenyl 2-(1-methyl-1H-indol-3-yl)acetate]
isoTOP-ABPP reactivity ratio at lysine Q9H6D7_K271 [2]: 1.0
isoTOP-ABPP reactivity ratio at lysine P11586_K760 [1]: 0.6

isoTOP-ABPP reactivity ratio at lysine Q9H6D7_K271 [2]: 0.8
Structure (SMILES): O=C(Oc1c(F)c(F)c(F)c(F)c1F)C1CCN(C(=O)OCc2ccccc2)CC1 [fragment 24, 1-Benzyl 4-(pentafluorophenyl) piperidine-1,4-dicarboxylate]

Structure (SMILES): N#Cc1ccc(C(=O)Oc2ccc([N+](=O)[O-])cc2[N+](=O)[O-])cc1 [fragment 44, 2,4-Dinitrophenyl 4-cyanobenzoate]
isoTOP-ABPP ratio, lysine Q9H6D7_K271 ([2]; 50 uM_231_sol_in vitro): 0.9

Structure (SMILES): O=C(CC12CC3CC(CC(C3)C1)C2)Oc1ccc([N+](=O)[O-])cc1[N+](=O)[O-] [fragment 38, 2,4-Dinitrophenyl 2-(adamantan-1-yl)acetate]
isoTOP-ABPP ratio (R) at liganded lysine P11586_K760 [1]: 1.3

isoTOP-ABPP ratio, lysine Q9H6D7_K271 ([2]; 100 uM_231_sol_in vitro): 4.3
isoTOP-ABPP ratio, lysine P11586_K760 ([1]; 100 uM_231_sol_in vitro): 0.6
Structure (SMILES): CC(C)(C)OC(=O)N=C(NC(=O)OC(C)(C)C)n1cccn1 [fragment 50, reference compound]
